# Measurements: article PMC5810560 (Chemico-biological interactions, 2017)
# Several values for one entry are separate records, joined by “and”; a condition that tells them apart may be missing. Equal entries are not always repeated.
# Tests used:
# [1] = RS194B biodistribution / brain penetration in perfused tissues; settings: for Tissue level at Cmax, percent of administered dose, Heart / Tissue level at Cmax, percent of administered dose, Kidney / Tissue level at Cmax, percent of administered dose, Liver / Tissue level at Cmax, percent of administered dose, Lung / Tissue level at Cmax, percent of administered dose, Spleen / Tissue level at Cmax, percent of administered dose, Brain: total tissue weight
# [2] = target: p-gp (MDR1) (Homo sapiens, UniProt P08183); assay: MDR1 efflux assessment in MDR1-MDCK and MDCK parent cells; settings: MDR1-MDCK vs MDCK cells, 100 μM; NFR > 1 = possible p-gp substrate
# [3] = Renal clearance: urine radioactivity and HPLC of urine; settings: for percent of the administered dose in urine: guinea pig
# [4] = guinea pig, after IV administration, post dose
# p-gp (MDR1), sequence (P08183 whole entry, looked up): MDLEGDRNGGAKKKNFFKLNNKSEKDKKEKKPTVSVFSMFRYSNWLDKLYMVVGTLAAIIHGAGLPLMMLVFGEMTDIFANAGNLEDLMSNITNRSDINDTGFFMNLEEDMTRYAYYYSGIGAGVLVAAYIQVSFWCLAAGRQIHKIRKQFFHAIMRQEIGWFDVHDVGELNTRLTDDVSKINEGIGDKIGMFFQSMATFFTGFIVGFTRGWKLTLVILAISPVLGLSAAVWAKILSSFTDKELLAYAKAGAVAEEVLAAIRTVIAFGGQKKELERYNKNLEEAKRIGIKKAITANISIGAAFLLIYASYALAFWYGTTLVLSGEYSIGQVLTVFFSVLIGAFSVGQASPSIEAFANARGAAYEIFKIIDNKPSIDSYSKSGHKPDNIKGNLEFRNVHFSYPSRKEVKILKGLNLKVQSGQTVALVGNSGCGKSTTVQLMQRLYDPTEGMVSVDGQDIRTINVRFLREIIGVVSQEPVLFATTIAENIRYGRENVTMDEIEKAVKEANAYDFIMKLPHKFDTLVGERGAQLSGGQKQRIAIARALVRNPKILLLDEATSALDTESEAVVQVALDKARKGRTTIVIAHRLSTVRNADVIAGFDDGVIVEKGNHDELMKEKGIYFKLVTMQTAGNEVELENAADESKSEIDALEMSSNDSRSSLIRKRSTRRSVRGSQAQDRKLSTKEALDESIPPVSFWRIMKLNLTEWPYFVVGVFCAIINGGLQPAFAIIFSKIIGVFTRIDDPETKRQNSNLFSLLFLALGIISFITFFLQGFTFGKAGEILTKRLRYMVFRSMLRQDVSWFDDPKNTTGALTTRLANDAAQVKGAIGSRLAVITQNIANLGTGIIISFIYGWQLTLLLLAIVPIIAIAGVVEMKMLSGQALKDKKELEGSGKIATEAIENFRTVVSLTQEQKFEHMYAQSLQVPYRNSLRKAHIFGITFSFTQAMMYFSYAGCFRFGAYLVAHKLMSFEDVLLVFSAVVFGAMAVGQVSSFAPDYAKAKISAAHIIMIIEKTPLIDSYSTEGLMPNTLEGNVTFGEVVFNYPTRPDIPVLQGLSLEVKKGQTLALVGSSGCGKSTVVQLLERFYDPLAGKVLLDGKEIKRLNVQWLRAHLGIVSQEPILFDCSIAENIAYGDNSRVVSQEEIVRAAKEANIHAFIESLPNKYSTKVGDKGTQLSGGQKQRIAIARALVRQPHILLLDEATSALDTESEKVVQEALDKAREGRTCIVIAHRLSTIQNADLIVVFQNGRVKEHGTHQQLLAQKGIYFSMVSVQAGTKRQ
smiles,measurement,setting,value
O=C(C=NO)NCCN1CCCCCC1 [RS194B],brain/ plasma,"[1]; guinea pig, IV 10 mg/kg, 1 hr",0.02 ± 0.001
same,brain/ plasma,"[1]; guinea pig, IV 10 mg/kg, 2 hr",0.03 ± 0.003
same,brain/ plasma,"[1]; guinea pig, IV 10 mg/kg, 4 hr",0.05 ± 0.003
same,brain/ plasma,"[1]; guinea pig, IV 10 mg/kg, 8 hr",0.09 ± 0.011
same,brain/ plasma,"[1]; guinea pig, IV 10 mg/kg, 24 hr",0.11 ± 0.035
same,"Tissue level at Cmax, percent of administered dose, Heart","[1]; guinea pig, IV 10 mg/kg",0.05 ± 0.01% of administered dose
same,"Tissue level at Cmax, percent of administered dose, Kidney","[1]; guinea pig, IV 10 mg/kg",5.19 ± 0.23% of administered dose
same,"Tissue level at Cmax, percent of administered dose, Liver","[1]; guinea pig, IV 10 mg/kg",8.76 ± 0.32% of administered dose
same,"Tissue level at Cmax, percent of administered dose, Lung","[1]; guinea pig, IV 10 mg/kg",0.45 ± 0.04% of administered dose
same,"Tissue level at Cmax, percent of administered dose, Spleen","[1]; guinea pig, IV 10 mg/kg",0.04 ± 0.01% of administered dose
same,"Tissue level at Cmax, percent of administered dose, Brain","[1]; guinea pig, IV 10 mg/kg, 10 mg/kg",0.03% of administered dose and 0.03 ± 0.002% of administered dose
same,brain/ plasma,"[1]; guinea pig, IV 50 mg/kg, 0.08 hr (brain Cmax)",0.09 ± 0.006
same,brain/ plasma,"[1]; guinea pig, IV 50 mg/kg, 0.25 hr",0.08 ± 0.005
same,brain/ plasma,"[1]; guinea pig, IV 50 mg/kg, 0.5 hr",0.05 ± 0.003
same,brain/ plasma,"[1]; guinea pig, IV 50 mg/kg, 1 hr",0.03 ± 0.014
same,brain/ plasma,"[1]; guinea pig, IV 50 mg/kg, 2 hr",0.03 ± 0.002
same,brain/ plasma,"[1]; guinea pig, IV 50 mg/kg, 4 hr",0.07 ± 0.004
same,brain/ plasma,"[1]; guinea pig, IV 50 mg/kg, 8 hr",0.07 ± 0.009
same,brain/ plasma,"[1]; guinea pig, IV 50 mg/kg, 24 hr",0.18 ± 0.062
same,"Tissue level at Cmax, percent of administered dose, Brain","[1]; guinea pig, IV 50 mg/kg",0.09 ± 0.01% of administered dose
same,"Tissue level at Cmax, percent of administered dose, Heart","[1]; guinea pig, IV 50 mg/kg",0.06 ± 0.01% of administered dose
same,"Tissue level at Cmax, percent of administered dose, Kidney","[1]; guinea pig, IV 50 mg/kg",5.16 ± 0.52% of administered dose
same,"Tissue level at Cmax, percent of administered dose, Liver","[1]; guinea pig, IV 50 mg/kg",8.60 ± 0.48% of administered dose
same,"Tissue level at Cmax, percent of administered dose, Lung","[1]; guinea pig, IV 50 mg/kg",0.95 ± 0.12% of administered dose
same,"Tissue level at Cmax, percent of administered dose, Spleen","[1]; guinea pig, IV 50 mg/kg",0.08 ± 0.01% of administered dose
same,brain/ plasma,"[1]; guinea pig, IV 100 mg/kg, 0.08 hr (brain Cmax)",0.12 ± 0.006
same,brain/ plasma,"[1]; guinea pig, IV 100 mg/kg, 0.25 hr",0.10 ± 0.008
same,brain/ plasma,"[1]; guinea pig, IV 100 mg/kg, 0.5 hr",0.12 ± 0.007
same,brain/ plasma,"[1]; guinea pig, IV 100 mg/kg, 1 hr",0.05 ± 0.001
same,brain/ plasma,"[1]; guinea pig, IV 100 mg/kg, 2 hr",0.05 ± 0.005
same,brain/ plasma,"[1]; guinea pig, IV 100 mg/kg, 4 hr",0.08 ± 0.005
same,brain/ plasma,"[1]; guinea pig, IV 100 mg/kg, 8 hr",0.08 ± 0.010
same,brain/ plasma,"[1]; guinea pig, IV 100 mg/kg, 24 hr",0.06 ± 0.008
same,"Tissue level at Cmax, percent of administered dose, Brain","[1]; guinea pig, IV 100 mg/kg",0.11 ± 0.01% of administered dose
same,"Tissue level at Cmax, percent of administered dose, Heart","[1]; guinea pig, IV 100 mg/kg",0.05 ± 0.01% of administered dose
same,"Tissue level at Cmax, percent of administered dose, Kidney","[1]; guinea pig, IV 100 mg/kg",3.81 ± 0.42% of administered dose
same,"Tissue level at Cmax, percent of administered dose, Liver","[1]; guinea pig, IV 100 mg/kg",8.32 ± 0.42% of administered dose
same,"Tissue level at Cmax, percent of administered dose, Lung","[1]; guinea pig, IV 100 mg/kg",0.77 ± 0.04% of administered dose
same,"Tissue level at Cmax, percent of administered dose, Spleen","[1]; guinea pig, IV 100 mg/kg",0.07 ± 0.01% of administered dose
same,brain/ plasma,"[1]; guinea pig, IV 200 mg/kg, 0.08 hr (brain Cmax)",0.18 ± 0.013
same,brain/ plasma,"[1]; guinea pig, IV 200 mg/kg, 0.25 hr",0.19 ± 0.012
same,brain/ plasma,"[1]; guinea pig, IV 200 mg/kg, 0.5 hr",0.27 ± 0.080
same,brain/ plasma,"[1]; guinea pig, IV 200 mg/kg, 1 hr",0.15 ± 0.028
same,brain/ plasma,"[1]; guinea pig, IV 200 mg/kg, 2 hr",0.08 ± 0.009
same,brain/ plasma,"[1]; guinea pig, IV 200 mg/kg, 4 hr",0.08 ± 0.005
same,brain/ plasma,"[1]; guinea pig, IV 200 mg/kg, 8 hr",0.12 ± 0.010
same,brain/ plasma,"[1]; guinea pig, IV 200 mg/kg, 24 hr",0.22 ± 0.071
same,"Tissue level at Cmax, percent of administered dose, Heart","[1]; guinea pig, IV 200 mg/kg",0.08 ± 0.01% of administered dose
same,"Tissue level at Cmax, percent of administered dose, Kidney","[1]; guinea pig, IV 200 mg/kg",3.65 ± 0.48% of administered dose
same,"Tissue level at Cmax, percent of administered dose, Liver","[1]; guinea pig, IV 200 mg/kg",5.25 ± 0.32% of administered dose
same,"Tissue level at Cmax, percent of administered dose, Lung","[1]; guinea pig, IV 200 mg/kg",0.85 ± 0.04% of administered dose
same,"Tissue level at Cmax, percent of administered dose, Spleen","[1]; guinea pig, IV 200 mg/kg",0.12 ± 0.01% of administered dose
same,"Tissue level at Cmax, percent of administered dose, Brain","[1]; guinea pig, IV 200 mg/kg, 200 mg/kg",0.18% of administered dose and 0.18 ± 0.01% of administered dose
same,"time of tissue Cmax, all tissues except the liver",[1]; [4],5 to 15 min
same,"time of tissue Cmax, liver",[1]; [4],30 min
same,"heart, percent of the administered dose at Cmax","[1]; mean over the dose range, IV",0.06%
same,"all other tissues, percent of the administered dose at Cmax","[1]; tissues other than liver and kidney, IV",less than 1%
same,net flux ratio (NFR),[2],≤ 1
same,radioactivity recovered in the urine,"[3]; first 4 h post dose, three highest dose concentrations",over 60%
same,metabolic stability (HPLC of 0-4 h urine),"[3]; guinea pig urine, one radioactive peak matching RS194B standard",metabolically stable
same,percent of the administered dose in urine,"[3]; IV 10 mg/kg, first 24 h",11-28%
same,percent of the administered dose in urine,"[3]; IV 50 mg/kg, first 24 hr post dose",49-77%
same,percent of the administered dose in urine,"[3]; IV 100 mg/kg, first 24 hr post dose",46-68%
same,percent of the administered dose in urine,"[3]; IV 200 mg/kg, first 24 hr post dose",59-79%
